The NIST ThermoML archive (doi:10.1016/j.tca.2019.178383)

Assay: xn = mol fraction of the nth substance listed
Details: for surface tension liquid-gas: Maximal bubble pressure; for mass density: 100 kPa, Liquid, Vibrating tube method

CCn1cc[n+](CCOC)c1.O=S(=O)([O-])C(F)(F)F + CCO
Details	mass density [kg/m3]	surface tension liquid-gas [mN/m]
288.15 K, x1 = 0.0996	965.057	23.1
288.15 K, x1 = 0.1999	1071.98	24.2
288.15 K, x1 = 0.2996	1144.79	25.6
288.15 K, x1 = 0.3984	1196.95	27.1
288.15 K, x1 = 0.4991	1237.58	28.7
288.15 K, x1 = 0.6026	1270.25	30.5
288.15 K, x1 = 0.6991	1295.01	31.8
288.15 K, x1 = 0.797	1315.78	33.4
288.15 K, x1 = 0.8995	1333.85	34.9
288.15 K, x1 = 1	1348.94	36.3
293.15 K, x1 = 0.0996	960.722	22.6
293.15 K, x1 = 0.1999	1067.62	23.8
293.15 K, x1 = 0.2996	1140.44	25.2
293.15 K, x1 = 0.3984	1192.61	26.7
293.15 K, x1 = 0.4991	1233.26	28.3
293.15 K, x1 = 0.6026	1265.94	30.1
293.15 K, x1 = 0.6991	1290.72	31.4
293.15 K, x1 = 0.797	1311.49	33.1
293.15 K, x1 = 0.8995	1329.57	34.7
293.15 K, x1 = 1	1344.66	36.1
298.15 K, x1 = 0.0996	956.38	22.1
298.15 K, x1 = 0.1999	1063.27	23.3
298.15 K, x1 = 0.2996	1136.09	24.8
298.15 K, x1 = 0.3984	1188.29	26.3
298.15 K, x1 = 0.4991	1228.95	27.9
298.15 K, x1 = 0.6026	1261.65	29.7
298.15 K, x1 = 0.6991	1286.44	31.1
298.15 K, x1 = 0.797	1307.22	32.8
298.15 K, x1 = 0.8995	1325.31	34.4
298.15 K, x1 = 1	1340.41	35.8
303.15 K, x1 = 0.0996	952.028	21.6
303.15 K, x1 = 0.1999	1058.92	22.8
303.15 K, x1 = 0.2996	1131.76	24.4
303.15 K, x1 = 0.3984	1183.97	25.8
303.15 K, x1 = 0.4991	1224.66	27.5
303.15 K, x1 = 0.6026	1257.38	29.3
303.15 K, x1 = 0.6991	1282.19	30.7
303.15 K, x1 = 0.797	1302.98	32.5
303.15 K, x1 = 0.8995	1321.08	34.1
303.15 K, x1 = 1	1336.17	35.5
308.15 K, x1 = 0.0996	947.665	21.2
308.15 K, x1 = 0.1999	1054.56	22.3
308.15 K, x1 = 0.2996	1127.43	23.9
308.15 K, x1 = 0.3984	1179.66	25.4
308.15 K, x1 = 0.4991	1220.38	27.1
308.15 K, x1 = 0.6026	1253.12	28.9
308.15 K, x1 = 0.6991	1277.95	30.3
308.15 K, x1 = 0.797	1298.75	32
308.15 K, x1 = 0.8995	1316.86	33.8
308.15 K, x1 = 1	1331.96	35.3
313.15 K, x1 = 0.0996	943.285	20.8
313.15 K, x1 = 0.1999	1050.2	21.8
313.15 K, x1 = 0.2996	1123.1	23.5
313.15 K, x1 = 0.3984	1175.37	25
313.15 K, x1 = 0.4991	1216.11	26.7
313.15 K, x1 = 0.6026	1248.89	28.6
313.15 K, x1 = 0.6991	1273.73	30
313.15 K, x1 = 0.797	1294.54	31.8
313.15 K, x1 = 0.8995	1312.66	33.5
313.15 K, x1 = 1	1327.77	35.1
318.15 K, x1 = 0.0996	938.889	20.3
318.15 K, x1 = 0.1999	1045.85	21.4
318.15 K, x1 = 0.2996	1118.78	23
318.15 K, x1 = 0.3984	1171.08	24.6
318.15 K, x1 = 0.4991	1211.87	26.3
318.15 K, x1 = 0.6026	1244.66	28.2
318.15 K, x1 = 0.6991	1269.52	29.6
318.15 K, x1 = 0.797	1290.35	31.5
318.15 K, x1 = 0.8995	1308.47	33.2
318.15 K, x1 = 1	1323.6	34.9
